Results taken from patent US10730848B2 (priority 2013, dated 2020).
Read-outs that look alike come from different tables or passages of the source.

Test system: anthrax lethal toxin (LT)
Assay: cells
Type: cell-based, murine
[1] = Mus musculus, RAW264.7, read-out: IC50 (In uM)
[2] = Mus musculus, RAW264.7, read-out: IC50, inhibition of LT-induced cell death

SMILES	protection of cells from LT (in words)	IC50 (Mus musculus, RAW264.7)	IC50 [1]	IC50 [2]	fold less active than 1	IC50
Cc1cccc(C)c1NC(=O)N/N=C/c1ccc(Br)cc1F [Compound 2, N^1-(4-BROMO-2-FLUOROBENZYLIDENE)-N^4-(2,6-DIMETHYLPHENYL)SEMICARBAZONE]	mid-nanomolar levels	0.4 µM	0.4 µM	0.4 µM		
Cc1cccc(C)c1NC(=O)NN [Compound 6, N-(2,6-DIMETHYLPHENYL) SEMICARBAZIDE]	did not prevent toxin-induced cell death					
Cc1ccc(NC(=O)N/N=C/c2ccc(Br)cc2)c(C)c1 [Compound 9a, N^1-(4-BROMOBENZYLIDENE)-N^4-(2,4-DIMETHYLPHENYL)SEMICARBAZONE]	not protective	> 25 µM				
Cc1cc(C)c(NC(=O)N/N=C/c2ccc(Br)cc2)c(C)c1 [Compound 9b, N^1-(4-BROMOBENZYLIDENE)-N^4-(2,4,6-DIMETHYLPHENYL)SEMICARBAZONE]		12.6 µM	12.6 µM		approximately 10 fold	
CCc1cccc(CC)c1NC(=O)N/N=C/c1ccc(Br)cc1 [Compound 9c, N^1-(4-BROMOBENZYLIDENE)-N^4-(2,6-DIETHYLPHENYL)SEMICARBAZONE]		16.7 µM	> 12.5 µM	> 12.5 µM		> 12.5 µM
CC(C)(C)NC(=O)N/N=C/c1ccc(Br)cc1 [Compound 10, N^1-(4-BROMOBENZYLIDENE)-N^4-(TERT-BUTYL)SEMICARBAZONE]	not protective	> 25 µM				
O=C(N/N=C/c1ccc(Cl)cc1)Nc1ccccc1 [Compound 11, N^1-(4-Cl-benzylidene)-N^4-phenylsemicarbazone, reference compound]	not protective	> 25 µM				
Cc1cccc(C)c1NC(=O)NN=Cc1ccccc1 [Compound 12, benzaldehyde N-(2,6-dimethylphenyl)semicarbazone, reference compound]	showed almost no activity against LT	> 25 µM				
Cc1cccc(C)c1NC(=O)N/N=C/c1ccc(Cl)cc1 [Compound 13a, N^1-(4-CHLOROBENZYLIDENE)-N^4-(2,6-DIMETHYLPHENYL)SEMICARBAZONE]		1.65 µM	1.65 µM			1.7 ± 0.2 µM
Cc1cccc(C)c1NC(=O)N/N=C/c1ccc(Br)c(F)c1 [Compound 13aa, N^1-(4-BROMO-3-FLUOROBENZYLIDENE)-N^4-(2,6-DIMETHYLPHENYL)SEMICARBAZONE]		1.5 µM				
Cc1cccc(C)c1NC(=O)N/N=C/c1ccc(Br)c(Cl)c1 [Compound 13ab, N^1-(4-BROMO-3-CHLOROBENZYLIDENE)-N^4-(2,6-DIMETHYLPHENYL)SEMICARBAZONE]		3.4 µM				
Cc1cccc(C)c1NC(=O)N/N=C/c1cccc(C(F)(F)F)c1Cl [Compound 13b, N^1-(2-CHLORO-3-TRIFLUOROMETHYLBENZYLIDENE)-N^4-(2,6-DIMETHYLPHENYL)SEMICARBAZONE]		> 25 µM	> 25 µM			
Cc1cccc(C)c1NC(=O)N/N=C/c1ccccc1F [Compound 13c, N^1-(2-FLUOROBENZYLIDENE)-N^4-(2,6-DIMETHYLPHENYL)SEMICARBAZONE]		8.2 µM	8.23 µM			
Cc1ccc(/C=N/NC(=O)Nc2c(C)cccc2C)cc1F [Compound 13d, N^1-(3-FLUORO-4-METHYLBENZYLIDENE)-N^4-(2,6-DIMETHYLPHENYL)SEMICARBAZONE]		1.8 µM	1.81 µM			
Cc1cccc(C)c1NC(=O)N/N=C/c1ccc(F)cc1 [Compound 13e, N^1-(4-FLUOROBENZYLIDENE)-N^4-(2,6-DIMETHYLPHENYL)SEMICARBAZONE]		7 µM	7 µM	7 µM		
Cc1cccc(C)c1NC(=O)N/N=C/c1ccc(F)cc1F [Compound 13f, N^1-(2,4-DIFLUOROBENZYLIDENE)-N^4-(2,6-DIMETHYLPHENYL)SEMICARBAZONE]		2.1 µM	2.14 µM	2.1 µM		
COc1cccc(/C=N/NC(=O)Nc2c(C)cccc2C)c1OC [Compound 13g, N^1-(2,3-DIMETHOXYBENZYLIDENE)-N^4-(2,6-DIMETHYLPHENYL)SEMICARBAZONE]		> 25 µM	> 25 µM			
COc1cc(OC)c(/C=N/NC(=O)Nc2c(C)cccc2C)c(OC)c1 [Compound 13h, N^1-(2,4,6-TRIMETHOXYBENZYLIDENE)-N^4-(2,6-DIMETHYLPHENYL)SEMICARBAZONE]		> 25 µM	> 25 µM			
Cc1ccccc1/C=N/NC(=O)Nc1c(C)cccc1C [Compound 13i, N^1-(2-METHYLBENZYLIDENE)-N^4-(2,6-DIMETHYLPHENYL)SEMICARBAZONE]		> 25 µM	> 25 µM			
Cc1cccc(/C=N/NC(=O)Nc2c(C)cccc2C)c1 [Compound 13j, N^1-(3-METHYLBENZYLIDENE)-N^4-(2,6-DIMETHYLPHENYL)SEMICARBAZONE]		13.4 µM	13.4 µM			
Cc1ccc(/C=N/NC(=O)Nc2c(C)cccc2C)cc1 [Compound 13k, N^1-(4-METHYLBENZYLIDENE)-N^4-(2,6-DIMETHYLPHENYL)SEMICARBAZONE]		2.9 µM	2.9 µM			

SMILES	protection of cells from LT (in words)	IC50 (Mus musculus, RAW264.7)	IC50 [1]	IC50 [2]	fold less active than 1	IC50
CCc1ccc(/C=N/NC(=O)Nc2c(C)cccc2C)cc1 [Compound 13l, N^1-(4-ETHYLBENZYLIDENE)-N^4-(2,6-DIMETHYLPHENYL)SEMICARBAZONE]		3 µM	3.02 µM			
Cc1cccc(C)c1NC(=O)N/N=C/c1ccc(C(C)C)cc1 [Compound 13m, N^1-(4-I-PROPYLBENZYLIDENE)-N^4-(2,6-DIMETHYLPHENYL)SEMICARBAZONE]		6.5 µM	6.48 µM			
COc1ccc(/C=N/NC(=O)Nc2c(C)cccc2C)cc1 [Compound 13n, N^1-(4-METHOXYBENZYLIDENE)-N^4-(2,6-DIMETHYLPHENYL)SEMICARBAZONE]		> 12.5 µM	> 12.5 µM			
C#Cc1ccc(/C=N/NC(=O)Nc2c(C)cccc2C)cc1 [Compound 13o, N^1-(4-ETHYNYLBENZYLIDENE)-N^4-(2,6-DIMETHYLPHENYL)SEMICARBAZONE]		1.7 µM	1.69 µM			
Cc1cccc(C)c1NC(=O)N/N=C/c1ccc(NS(C)(=O)=O)cc1 [Compound 13p, N^1-(4-(N-(4-FORMYLPHENYL)METHANESULFONAMIDE)BENZYLIDENE-N^4-(2,6-DIMETHYLPHENYL)SEMICARBAZONE]		> 25 µM	> 25 µM			
Cc1cccc(C)c1NC(=O)N/N=C/c1ccc(I)cc1 [Compound 13q, N^1-(4-IODOBENZYLIDENE)-N^4-(2,6-DIMETHYLPHENYL)SEMICARBAZONE]		1.77 µM	1.77 µM			1.8 ± 0.3 µM
Cc1cccc(C)c1NC(=O)N/N=C/c1ccc(C(F)(F)F)cc1 [Compound 13r, N^1-(4-TRIFLUOROMETHYLBENZYLIDENE)-N^4-(2,6-DIMETHYLPHENYL)SEMICARBAZONE]		2.6 ± 0.5 µM	2.59 µM			
Cc1cccc(C)c1NC(=O)N/N=C/c1ccc(C#N)cc1 [Compound 13s, N^1-(4-CYANOMETHYLBENZYLIDENE)-N^4-(2,6-DIMETHYLPHENYL)SEMICARBAZONE]		2.45 µM	2.45 µM			2.5 ± 0.3 µM
Cc1cccc(C)c1NC(=O)N/N=C/c1ccncc1 [Compound 13t, N^1-(PYRIDIN-4-YLMETHYLENE)-N^4-(2,6-DIMETHYLPHENYL)SEMICARBAZONE]		> 25 µM				
Cc1cccc(C)c1NC(=O)N/N=C/c1ccco1 [Compound 13u, N^1-(FURAN-2-YLMETHYLENE)-N^4-(2,6-DIMETHYLPHENYL)SEMICARBAZONE]		> 25 µM				
Cc1cccc(C)c1NC(=O)N/N=C/c1ccc(Br)o1 [Compound 13v, N^1-(5-BROMOFURAN-2-YLMETHYLENE)-N^4-(2,6-DIMETHYLPHENYL)SEMICARBAZONE]		> 25 µM				> 25 µM
Cc1cccc(C)c1NC(=O)N/N=C/c1cccs1 [Compound 13w, N^1-(THIOPHENE-2-YLMETHYLENE)-N^4-(2,6-DIMETHYLPHENYL)SEMICARBAZONE]		> 25 µM				> 25 µM
Cc1cccc(C)c1NC(=O)N/N=C/c1ccc(Br)s1 [Compound 13x, N^1-(5-BROMOTHIOPHENE-2-YLMETHYLENE)-N^4-(2,6-DIMETHYLPHENYL)SEMICARBAZONE]		1.67 µM		1.7 µM		
Cc1cccc(C)c1NC(=O)N/N=C/c1c(F)cc(Br)cc1F [Compound 13y, N^1-(4-BROMO-2,6-DIFLUOROBENZYLIDENE)-N^4-(2,6-DIMETHYLPHENYL)SEMICARBAZONE]		3.9 µM	3.95 µM			4 ± 0.8 µM
Cc1cccc(C)c1NC(=O)N/N=C/c1ccc(Br)cc1Cl [Compound 13z, N^1-(4-BROMO-2-CHLOROBENZYLIDENE)-N^4-(2,6-DIMETHYLPHENYL)SEMICARBAZONE]		3.2 µM	3.24 µM			
Cc1cccc(C)c1NC(=O)NNCc1ccc(Br)cc1 [Compound 14, 2-(4-BROMOBENZYL)-N-(2,6-DIMETHYLPHENYL)HYDRAZINECARBOXAMIDE]	not protective	> 25 µM	> 25 µM			
C/C(=N\NC(=O)Nc1c(C)cccc1C)c1ccc(Br)cc1 [Compound 15, N^1-(4-BROMOPHENYLETHYLIDENE)-N^4-(2,6-DIMETHYLPHENYL)SEMICARBAZONE]		2.5 µM	2.5 µM	2.5 µM		
Cc1cccc(C)c1NC(=O)N(C)/N=C/c1ccc(Br)cc1 [Compound 16, N^1-2-(4-BROMOBENZYLIDENE)-N^4-(2,6-DIMETHYLPHENYL)1-METHYLHYDRAZINECARBOXAMIDE]		1.96 µM	1.96 µM	2 µM		
C#CCN(/N=C/c1ccc(Br)cc1)C(=O)Nc1c(C)cccc1C [Compound 17, 2-(4-BROMOBENZYLIDENE)-N-(2,6-DIMETHYLPHENYL)-1-(PROP-2-YN-1-YL)HYDRAZINECARBOXAMIDE]		> 12.5 µM		> 12.5 µM		
Cc1cccc(C)c1NC(=S)N/N=C/c1ccc(Br)cc1 [Compound 19a, N^1-(4-BROMOBENZYLIDENE)-N^4-(2,6-DIMETHYLPHENYL)THIOSEMICARBAZONE]		1.52 µM	1.52 µM	1.5 µM		
Cc1cccc(C)c1/N=C(\N)N/N=C/c1ccc(Br)cc1 [Compound 22, 2-(4-BROMOBENZYLIDENE)-N′-(2,6-DIMETHYLPHENYL)HYDRAZINECARBOXIMIDAMIDE]				13.8 µM		
